Results on 1 molecule are retold here after patent publication US10435399B2, “HDAC6 inhibitory heterocyclic compound” (TAKEDA PHARMACEUTICAL COMPANY LIMITED, priority 2017, dated 2019).

The series concerns TK6 cells. Briefly: γH2AX assay using TK6 cells. The series is classed as cell-based, Human. The settings on record: 4 hr treatment, up to 100 μM. As for the experimental part: γH2AX Assay Using TK6 Cells
Human lymphoblasts-derived TK6 cells were treated with the compounds of Examples 489, 512 or 519 at 0, 10, 30 or 100 μmol/L (final concentration) for 4 hr, and the presence or absence of DNA damage was evaluated by measuring phosphorylation of histone H2AX (γH2AX) as a marker. In addition, cytotoxicity after 24-hr treatment was also evaluated.
Exponentially growing TK6 cells were prepared at the cell density of 4×10^5 cells/mL in a culture medium, and was added to a 96-well plate by 100 μL/well. A test compound solution (2% DMSO) prepared using a culture solution, having twice the concentration on the above-mentioned final concentrations, was added thereto by 100 μL/well. This plate was incubated at 37° C., the cell suspension after 4 hr was sampled, and stained using In Vitro MultiFlow™ DNA Damage Kit (Litron), and H2AX phosphorylation level in each nucleus was measured using a flow cytometer and average value was calculated. The H2AX phosphorylation level in the concurrent vehicle control group was also measured and average value was calculated. The rate of change in the H2AX phosphorylation level in the treatment groups relative to that in the control group was calculated, and Dunnett test (significance level: two-tailed 1%) was performed. In addition, the cell suspension after 24 hr treatment was sampled, and the nucleus number was measured, and variation in the nucleus number in the treatment groups relative to that in the concurrent vehicle control group was used as an indicator of cytotoxicity. […] Therefore, the potential of the compounds for DNA strand breakage was judged to be negative under this test condition.

For `O=C1c2cc(-c3nnc(C(F)F)o3)cnc2CN1[C@@H]1CCCC[C@H]1NC(=O)C(F)(F)C(F)(F)F` [Example 489, N-((1R,2R)-2-(3-(5-(difluoromethyl)-1,3,4-oxadiazol-2-yl)-5-oxo-5,7-dihydro-6H-pyrrolo[3,4-b]pyridin-6-yl)cyclohexyl)-2,2,3,3,3-pentafluoropropanamide], the “histone H2AX phosphorylation (γH2AX) resulted from DNA strand breakage” value is given as “did not induce histone H2AX phosphorylation” and the “potential for DNA strand breakage (judgement)” value is on record as “negative”.
